We go through 3 molecules from paper PMC2410173, “Pharmacokinetics and efficacy of 2-methoxyoestradiol and 2-methoxyoestradiol-bis-sulphamate in vivo in rodents” (British Journal of Cancer, 2004).

For data set [1] the following is noted: in vivo; cited from earlier work.
In data set [2] the target is T1, steroid sulphatase (Rattus norvegicus, UniProt P15589).
T1 construct: Livers were obtained from animals administered with 2-MeOE2 or 2-MeOE2bisMATE either orally or intravenously, to assess their effects on steroid sulphatase activity; from tissue; host or cells: liver of female Wistar rats
T1 sequence (P15589 20-577): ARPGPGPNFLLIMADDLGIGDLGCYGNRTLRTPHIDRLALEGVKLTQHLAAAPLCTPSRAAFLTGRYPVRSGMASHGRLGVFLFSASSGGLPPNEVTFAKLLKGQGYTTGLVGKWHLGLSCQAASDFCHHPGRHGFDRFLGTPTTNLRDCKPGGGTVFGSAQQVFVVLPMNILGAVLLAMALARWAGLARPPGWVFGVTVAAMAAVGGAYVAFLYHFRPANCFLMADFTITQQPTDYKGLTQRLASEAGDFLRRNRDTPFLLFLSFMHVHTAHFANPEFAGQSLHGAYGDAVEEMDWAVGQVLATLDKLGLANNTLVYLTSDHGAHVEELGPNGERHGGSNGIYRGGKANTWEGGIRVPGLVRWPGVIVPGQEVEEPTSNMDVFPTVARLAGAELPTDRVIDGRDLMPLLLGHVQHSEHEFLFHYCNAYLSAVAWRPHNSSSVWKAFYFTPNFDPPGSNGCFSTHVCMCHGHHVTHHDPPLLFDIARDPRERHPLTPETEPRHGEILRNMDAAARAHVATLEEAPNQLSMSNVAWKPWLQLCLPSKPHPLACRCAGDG
The arrangement: method as in Purohit et al, 1995. The conditions noted are these: single dose 10 mg kg^−1 oral or intravenous; ref Purohit et al, 1995; cited from earlier work.

For data set [3], the system named is MDA-MB-435 (ER−) human melanoma cells xenografts. Put plainly: In vivo inhibition of tumour growth, MDA-MB-435 xenografts in nude mice. The arrangement: species or system mouse. The conditions noted are these: 20 mg kg^−1 oral daily for 28 days; for effect on tumour growth / tumour volumes versus control: treatment and post-dosing periods. The procedure: (§1) To compare the anticancer effects of 2-MeOE2 and 2-MeOE2bisMATE, xenografts derived from MDA-MB-435 (ER−) human melanoma cells were transplanted into female nude mice with eight mice per group. These studies were carried out by Anti-Cancer Inc. (San Diego, CA, USA). Treatment was initiated when tumour volumes reached 100–200 mm^3. Drugs were dissolved in a minimum volume of THF, diluted with propylene glycol and administered at 20 mg kg^−1, oral, daily for 28 days. The length (l) and width (w) of tumours was measured at weekly intervals, from which the tumour volumes were calculated using the formula (l × w^2/2). Monitoring of tumour volumes continued for a further 28-day period after the end of drug administration. The body masses of control and treated animals were also measured at weekly intervals as an indicator of any toxicity that might be associated with the use of these drugs.
Student's t-test was used to assess the significance of differences in tumour volumes between control and treated animals.

Data set [4] is described as follows: Pharmacokinetics and metabolism in rat plasma after a single intravenous or oral dose (HPLC). The format is in vivo. Here is the method: Female Wistar (155–165 g) rats were purchased from Charles River UK Ltd (Margate, Kent, UK) and housed in a dedicated animal facility. Rats received RM1 rodent maintenance diet (SDS, Kent, UK), water ad libitum, and were maintained in positive pressure isolators under a 12 h light–dark cycle. These experiments were carried out under conditions that complied with institutional requirements. Rats received 2-MeOE2 or 2-MeOE2bisMATE (10 mg kg^−1, oral or intravenous), with control animals receiving vehicle only (propylene glycol: THF, 9 : 1 v v^−1). There were two reasons for selecting 10 mg kg^−1 for both oral and intravenous dosing. […] Rats were subjected to terminal anaesthesia (Halothane) and blood removed by cardiac puncture at 5, 15 and 30 min and 1, 3, 8 and 24 h after intravenous administration, and 15 and 30 min and 1, 3, 8, 24 and 48h following oral administration of 2-MeOE2 or 2-MeOE2bisMATE. Plasma was prepared from whole blood by centrifugation (2800 g, 4°C, 15 min). Plasma (0.5 ml) was extracted with diethyl ether (4 ml) and frozen in a methanol : solid carbon dioxide mixture. 17α-Epitestosterone (28 μg ml^−1) was used as an internal standard after purification by HPLC. The organic phase was decanted to a fresh tube and evaporated to dryness under a stream of air at room temperature. The extraction efficiencies for 2-MeOE2 and 2-MeOE2bisMATE from plasma were 71±5 and 75±4% (n=6), respectively. The residues were stored at −20°C until analysis by HPLC.
2-MeOE2bisMATE was separated from its putative metabolites, 2-MeOE2, 2-MeOE2-3MATE and 2-MeOE2-17MATE, using a modified version of a reversed-phase HPLC method described previously ([Hildago Aragones et al, 1996]). An Agilent 1100 (Cheshire, UK) autosampler, photodiode array detector and solvent delivery system were used. The agents were separated from endogenous plasma components by an isocratic mobile phase consisting of 58% methanol in 0.02 M ammonium sulphate. Sodium azide (1 mM) was added to the mobile phase in order to decrease microbial growth. Extracted samples were reconstituted in mobile phase and aliquots of 100 μl were injected on to a C3-phenyl column (250 × 5 mm, 5 μm) purchased from Phenomenex (Cheshire, UK). 2-Methoxyoestradiol-bis-sulphamate, 2-MeOE2 and their metabolites were analysed with a photodiode array detector with detection at 285 nm. The method was validated by spiking plasma with 2-MeOE2bisMATE (960 ng ml^−1). The inter-day and intra-day coefficients of variation were 8.2% (n=6) and 3.8% (n=6), respectively. Quantification was achieved by spiking plasma with 2-MeOE2bisMATE and the internal standard 17α-epitestosterone, extraction with diethyl ether and subsequent analysis by HPLC. […] The limits of detection (LODs) and quantification of 2-MeOE2bisMATE in plasma were 11 and 40 ng ml^−1, respectively.
Pharmacokinetic parameters were calculated using WinNonlin software (Pharsight Corporation, Mountview, CA, USA). The area under the curve (AUC) was calculated using the linear trapezoidal method, with extrapolation of the terminal phase to infinity. Other parameters calculated were: distribution and elimination rate constants (α and β); total body clearance (Cl)=dose/AUC; volume of distribution (Vd)=Cl/β; distribution half-life (t1/2α)=0.693/α; elimination half-life (t1/2β)=0.693/β; bioavailability (% F=(AUCoral/AUCi.v) × 100).

The target of data set [5] is T1, steroid sulphatase. Put plainly: Liver oestrone sulphatase activity after in vivo dosing. The procedure:
Livers were obtained from animals administered with 2-MeOE2 or 2-MeOE2bisMATE either orally or intravenously, to assess their effects on steroid sulphatase activity. Steroid sulphatase activity was measured as described previously ([Purohit et al, 1995]).

In data set [6] the test system is human umbilical vein endothelial cell (HUVEC). The arrangement: method as in Newman et al, 2004. The conditions noted are these: in vitro; ref Newman et al, 2004; cited from earlier work.
The nature of data set [7]: Body masses of xenograft-bearing mice as an indicator of toxicity. The conditions noted are these: nude mice, 20 mg kg^−1 oral daily for 28 days. The format is in vivo, mouse. Here is the method: as §1
Setting [8] is: female, Wistar, in vivo, iv, 10 mg/kg.
[9] abbreviates: female, Wistar, in vivo, po, 10 mg/kg.

“Also recorded” adds a separate entry of the source. Read-outs that look alike come from different tables or passages of the source.

Take `C[C@]12CC[C@@H]3c4ccc(OS(N)(=O)=O)cc4CC[C@H]3[C@@H]1CCC2=O` [EMATE, oestrone-3-O-sulphamate]: in data set [1], the half-life in plasma is reported as 4.5 h. For the same molecule, the “inhibition of rat liver sulphatase” value in data set [2] is reported as “at least 99%”.
`COc1cc2c(cc1OS(N)(=O)=O)CCC1C2CC[C@]2(C)C(OS(N)(=O)=O)CCC12` (stereo partly drawn) [2-MeOE2bisMATE, 2-methoxyoestradiol-bis-sulphamate]: the “effect on tumour growth / tumour volumes versus control” value in data set [3] was “almost completely inhibited tumour growth; also recorded: significantly smaller”. Moreover, in data set [3] (at 4 weeks, end of dosing), the “mean tumour volume as % of tumour volume in control animals” value turned out to be 14%. Also, the “difference in tumour volumes versus control group” value in data set [3] (maintained for a further 4 weeks after cessation) stood at 86%. In data set [4] (female, Wistar, in vivo), the plasma concentrations detected result is listed as “up to 5 μM”. The same molecule had a bioavailability in data set [4] (female, Wistar, in vivo, 10 mg/kg, % F (bioavailability)) of 85%. Also, in data set [4] (setting [8]), the AUC came to 514 ± 154 µg·h/mL, the Cmax was found to be 6550 ± 920 ng/mL, the Vd turned out to be 0.28 ± 0.09 L and the clearance was 0.833 mL/min. Also, the half-life in data set [4] (female, Wistar, in vivo, iv, 10 mg/kg, t1/2α (distribution half-life)) was 0.22 ± 0.1 h. This molecule gave a half-life in data set [4] (female, Wistar, in vivo, iv, 10 mg/kg, t1/2β (terminal half-life)) of 8.5 ± 1.16 h. Moreover, the “time for which compound was detectable in plasma” value in data set [4] (female, Wistar, in vivo, po) was “at least 24 h”. In data set [4] (setting [9]), the AUC amounted to 389 ± 28.8 µg·h/mL, the Cl was 0.036 ± 0.001 L/h, the Cmax was determined as 3900 ± 250 ng/mL and the Vd was found to be 0.35 ± 0.02 L. The half-life in data set [4] (female, Wistar, in vivo, po, 10 mg/kg, t1/2β (terminal plasma half-life)) was 6.51 ± 1.09 h. For the same molecule, in data set [4] (female, Wistar, in vivo, po, 24 h), the plasma concentration is 450 ng/mL. In addition, the “time for which inhibition of sulphatase activity was maintained” value in data set [5] (rat liver, after single dose) turned out to be 48 h. Also, in data set [5] (rat liver, within 5 min of intravenous dosing), the “inhibition of steroid sulphatase activity” value was greater than 99%. In addition, the “inhibition of steroid sulphatase activity” value in data set [5] (rat liver, within 15 min of oral dosing) is listed as greater than 99%. Also, the inhibition at 10 mg/kg in data set [5] (rat, read-out: inhibition of hepatic sulphatase activity compared with control animals) came to 99.5 ± 0.5%. Also, the “potency relative to 2-MeOE2 in HUVEC growth inhibition” value in data set [6] was 60 fold.
For `COc1cc2c(cc1O)CC[C@@H]1[C@@H]2CC[C@]2(C)[C@@H](O)CC[C@@H]12` [2-MeOE2, 2-Methoxyoestradiol], the “effect on tumour growth / tumour volumes versus control” value in data set [3] is given as “did not inhibit tumour growth; also recorded: no significant effect”. In addition, the “% F (bioavailability)” value in data set [4] (10 mg kg^−1, (AUCoral/AUCi.v) × 100) is on record as “very low”. Moreover, the plasma concentration entry in data set [4] (1 h after 10 mg kg^−1 intravenous bolus, LOD 11 ng ml^−1) is on record as “below the LOD”. For the same molecule, in data set [4] (after oral or intravenous 2-MeOE2bisMATE 10 mg kg^−1), the “level in plasma as putative metabolite of 2-MeOE2bisMATE” value is on record as “not above the LOD”. The same molecule showed a concentration at 1 h in data set [4] (female, Wistar, plasma, iv, 10 mg kg^−1, rat, 1 h after 10 mg kg^−1 intravenous bolus, LOD 11 ng ml^−1) of less than 11 ng/mL. Further, in data set [4] (female, Wistar, plasma, iv, 10 mg kg^−1, rat, after intravenous administration, read-out: half-life in plasma), the half-life is roughly 0.233 h. Further, the “inhibition of hepatic sulphatase activity compared with control animals” value in data set [5] (rat liver, single oral or intravenous dose 10 mg kg^−1) is listed as “did not affect”. Further, in data set [7], the body weights result is on record as “No decreases”.

The bioavailability is dose-corrected exposure relative to a reference, in per cent. One may read the AUC as concentration integrated over time. Read a low AUC as less exposure. The term Cmax denotes the highest concentration seen after dosing. The half-life is the time needed for the level to fall by half in the phase considered. A word on the inhibition: it is the drop in the measured response relative to a control, in per cent.
